Data: patent US20090018142A9, “Use of phosphatases to treat tumors overexpressing N-CoR” (priority 2006, published 2009)
Entries after “also recorded” stand apart in the source; their conditions may differ. Like-named read-outs stand apart in the source and are kept apart here.

Tests used:
[1] = test system: kidney cancer cell line, UMRC; assay: Inhibition of growth of kidney cancer cell line UMRC, single agents, 7 days; assay type: cell-based; settings: 7 days (FIG. 6A vs 6B)
Source text: (§1) To determine whether there is tumor type specificity of the inhibitory properties of PP2A inhibitors, retinoic acid and Trichostatin A, we measured their inhibitory effects as single agents against the GBM line U373, a breast cancer line, MCF-7 (obtained from ATCC) and a kidney cancer cell line, UMRC (UMRC obtained by Dr. Zhuang, NINDS, NIH from the Intramural Research Support Program, SAIC, National Cancer Institute, Frederick Cancer Research and Development Center).

GBM cell line U373 = assay: cells; assay type: cell-based, human; settings: for Inhibition of U373 growth as single agent (in words): individual treatment, 7 days; for Concentration range of activity against U373 (in words): single agent (FIG. 5A, 5B)
Experimental: To identify novel therapeutic targets for the treatment of glioblastoma multiforme (GBM), cantharidin analogs were evaluated for their ability to inhibit growth of glioblastoma multiforme cells. Specifically, GBM cell line U373 was used in evaluations.
The total number of cells is counted in the triplicate cultures at each dose and in controls after 7 days and the average number of cells and the standard deviation is determined.
The amount of inhibition of GBM cell growth is expressed as the proportion of the number of cells in the experimental dishes compared to the number of cells in control dishes containing only the drug vehicle and culture medium. The average percent of control is plotted and bracketed by one standard deviation calculated from the triplicate measurements.

[2] = test system: breast cancer line, MCF-7; assay: Inhibition of growth of breast cancer line MCF-7, single agents, 7 days; assay type: cell-based; settings: for Inhibition of MCF-7 growth (in words): individual doses, 7 days (FIG. 6C); for Sensitivity of MCF-7 compared with U373 (in words): single agents, 7 days (FIG. 6C vs 6B)
Source text: as §1

[3] = cited from earlier work; for Urinary tract toxicity (in words): in vivo
PP1 = settings: cited from earlier work
PP2A = settings: cited from earlier work
[4] = test system: white blood cell production; settings: patients and mice; cited from earlier work
primary hepatoma = settings: cited from earlier work
GBM cell line U343 MG-A = assay: Growth of GBM cell line U343 MG-A, cell counts over 16 days; assay type: cell-based, human; settings: 50 μM retinoic acid and/or 10 nM okadaic acid
Experimental: Finally, the GBM cell line U343 MG-A was treated with 50 μM of retinoic acid (RA) and/or 10 nM of okadaic acid (OA), a protein phosphatase-1 inhibitor.
Three cultures for each of four treatments were grown for 16 days with cell counts obtained at baseline and for each of the eight even numbered days. Log transformations were applied to the cell counts, and repeated measures of analysis of variance model used to evaluate the treatment differences over time. Pair wise treatment comparisons used Sidak's statistic to account for multiple testing.

[5] = for weeks; cited from earlier work
[6] = test system: brain tumor stem cells (BTSC) isolated from GBM; assay: Differentiation of cultured brain tumor stem cells treated with CNTF (GFAP expression, N-CoR localization); assay type: cell-based
Experimental: (Hughes et al. (1988)) The BTSCs cells were then assessed for GFAP expression along with subcellular N—CoR localization.

[7] = Homo sapiens, U373 MG, 168 h, read-out: IC50, concentration that inhibited brain tumor cell proliferation by 50%
[8] = U373, 7 days exposure, estimated from graphic plots (FIG. 3), read-out: IC50, concentration that inhibited brain tumor cell proliferation by 50%

## CC1=C(/C=C/C(C)=C/C=C/C(C)=C/C(=O)O)C(C)(C)CCC1 [ATRA, all-trans retinoic acid]
[1]
  Sensitivity of UMRC compared with U373 (in words): less sensitive
GBM cell line U373; Homo sapiens, U373 MG, 168 h, U373, 7 days (FIG. 4A), read-out: IC50 of ATRA alone
  IC50: > 50 µM
GBM cell line U373; Homo sapiens, U373 MG, U373, ATRA 25 uM alone, read-out: Percent of Control, Observed
  activity at 25 µM: 77%
GBM cell line U373; U373
  Inhibition of U373 growth as single agent (in words): modest inhibition of growth
[2]
  Inhibition of MCF-7 growth (in words): showed an inhibition in growth
  Sensitivity of MCF-7 compared with U373 (in words): as sensitive as U373

## CC1=C(/C=C/C(C)=C/C=C/C(C)=C\C(=O)O)C(C)(C)CCC1 [Cis-RA, 13-cis retinoic acid]
GBM cell line U373; U373, Cis-RA 50 μM alone
  Percent of Control, Observed: 93.3 +/− 2.2% of Control
GBM cell line U373; U373
  Inhibition of U373 growth as single agent (in words): modest inhibition of growth

## CC(/C=C/C(=O)NO)=C\[C@@H](C)C(=O)c1ccc(N(C)C)cc1 [TSA, Trichostatin A]
[1]
  Sensitivity of UMRC compared with U373 (in words): less sensitive
GBM cell line U373; U373, TSA 0.033 μM (0.01 μg/ml) alone
  Percent of Control, Observed: 71.6 +/− 0.4% of Control
GBM cell line U373; U373
  Inhibition of U373 growth as single agent (in words): dose dependent activity
  Concentration range of activity against U373 (in words): active at nM concentrations
[2]
  Inhibition of MCF-7 growth (in words): showed an inhibition in growth
  Sensitivity of MCF-7 compared with U373 (in words): as sensitive as U373

## C[C@@]12C(=O)OC(=O)[C@]1(C)[C@H]1CC[C@@H]2O1 [cantharidin]
[3]
  Urinary tract toxicity (in words): toxic to the urinary tract
PP1
  Inhibition of PP1 activity (in words): to some extent
PP2A
  Inhibition of PP2A activity (in words): inhibit the activity of PP2A

## CN1CCN(C(=O)C2C(C(=O)O)[C@H]3CC[C@@H]2O3)CC1 (stereo partly drawn) [compound LB-1]
GBM cell line U373; [7]
  IC50: 3 µM
GBM cell line U373; Homo sapiens, U373 MG, read-out: Percent of Control, Observed, U373, LB-1 1 uM alone (Table 1)
  activity at 1 µM: 78%
GBM cell line U373; U373, LB-1 1 μM alone (Table 3)
  Percent of Control, Observed: 97.9 +/− 1.0% of Control
GBM cell line U373; U373, LB-1 5 μM alone
  Percent of Control, Observed: 52.5 +/− 2.9% of Control
GBM cell line U373; U373
  Inhibition of U373 growth as single agent (in words): modest inhibition of growth

## O=C1SC(=O)[C@H]2[C@@H]1[C@@H]1CC[C@H]2O1 [endothal thioanhydride]
[1]
  Sensitivity of UMRC compared with U373 (in words): less sensitive
[3]; mice
  Liver toxicity (in words): toxic to the liver of mice
GBM cell line U373; [8]
  IC50: 2.5 µM
GBM cell line U373; U373
  Inhibition of U373 growth as single agent (in words): most potent inhibitor of GBMs in vitro; also recorded: greatest inhibition of growth
[2]
  Sensitivity of MCF-7 compared with U373 (in words): as sensitive as U373
PP1
  Inhibition of PP1 activity (in words): to some extent
PP2A
  Inhibition of PP2A activity (in words): inhibit the activity of PP2A

## O=C(O)C1C2CCC(O2)C1C(=O)O (stereo not drawn) [endothal]
[1]
  Sensitivity of UMRC compared with U373 (in words): less sensitive
GBM cell line U373; [7]
  IC50: 15 µM
GBM cell line U373; Homo sapiens, U373 MG, read-out: Percent of Control, U373, endothal 1 μM, 13-cis retinoic acid none
  activity at 1 µM: 100%
GBM cell line U373; Homo sapiens, U373 MG, read-out: Percent of Control, U373, endothal 5 μM, 13-cis retinoic acid none
  activity at 5 µM: 96%
GBM cell line U373; Homo sapiens, U373 MG, read-out: Percent of Control, U373, endothal 10 μM, 13-cis retinoic acid none
  activity at 10 µM: 76%
GBM cell line U373; U373, END 10 uM alone
  Percent of Control, Observed: 65%
GBM cell line U373; U373, endothal 10 μM, 13-cis retinoic acid none
  Percent of Control: 73%
GBM cell line U373; U373
  Inhibition of U373 growth as single agent (in words): modest inhibition of growth
[2]
  Inhibition of MCF-7 growth (in words): showed an inhibition in growth
  Sensitivity of MCF-7 compared with U373 (in words): as sensitive as U373
PP1
  Inhibition of PP1 activity (in words): to some extent
PP2A
  Inhibition of PP2A activity (in words): inhibit the activity of PP2A

## O=C1OC(=O)[C@H]2[C@@H]1[C@H]1CC[C@H]2O1 [norcantharidin]
[1]
  Sensitivity of UMRC compared with U373 (in words): less sensitive
[3]; compared among endothal thioanhydride, norcantharidin, endothal
  Relative toxicity in vivo (in words): falling in between
[3]
  Urinary tract toxicity (in words): little or no urinary tract toxicity
[4]
  White blood cell production (in words): stimulates white blood cell production
Primary hepatoma; 244 patients with primary hepatoma, historical controls 17%
  1-year survival: 30%
Primary hepatoma; 244 patients, historical controls on standard chemotherapy 4.7 months
  Life span of patients with primary hepatoma: 11.1 months
GBM cell line U373; [8]
  IC50: 12 µM
[2]
  Sensitivity of MCF-7 compared with U373 (in words): as sensitive as U373

## C=C1[C@@H](O)[C@@H]2O[C@]3(CC[C@H](/C=C/[C@@H](C)[C@@H]4CC(C)=C[C@@]5(O[C@H](C[C@@](C)(O)C(=O)O)CC[C@H]5O)O4)O3)CC[C@H]2O[C@@H]1[C@@H](O)C[C@H](C)[C@H]1O[C@@]2(CCCCO2)CC[C@H]1C [okadaic acid]
GBM cell line U343 MG-A; 16 days
  Course of cell counts over time (in words): monotonically increased
GBM cell line U343 MG-A; 16 days (FIG. 2C)
  Effect on cell growth (in words): modest effect on cell growth

## CCCC(CCC)C(=O)O [valproic acid]
[5]
  Serum concentration tolerated in humans: ~1000 µM
GBM cell line U373; U373
  Inhibition of U373 growth as single agent (in words): dose dependent activity
  Concentration range of activity against U373 (in words): in the mM range

B1: CNTF: ciliary neurotrophic factor, agent shown to induce astrocytic differentiation of neural stem cells in vitro (protein, UniProt P26441 1-200, looked up)
Ciliary neurotrophic factor: MAFTEHSPLTPHRRDLCSRSIWLARKIRSDLTALTESYVKHQGLNKNINLDSADGMPVASTDQWSELTEAERLQENLQAYRTFHVLLARLLEDQQVHFTPTEGDFHQAIHTLLLQVAAFAYQIEELMILLEYKIPRNEADGMPINVGDGGLFEKKLWGLKVLQELSQWTVRSIHDLRFISSHQTGIPARGSHYIANNKKM
[6]; BTSC cultured with CNTF, 2-DGE and LCMS (FIG. 2A)
  GFAP expression in BTSC (in words): began to express GFAP
[6]; Western blot of cytoplasmic fraction of CNTF-treated BTSC (FIG. 2B)
  Subcellular localization of N-CoR in BTSC (in words): translocation of N—CoR to the cytoplasm
[6]; following CNTF stimulation
  Time of peak cytoplasmic N-CoR and GFAP expression: 7 days
